Experimental data from patent US6962894B1, “Herbicidal composition” (Syngenta Crop Protection, Inc., priority 1999, dated 2005).

Columns and labels:
Assay in all cases: Post-emergence greenhouse pot test, herbicide alone and with safener
Format in all cases: in vivo
Agrostis spica-venti = details: 10 days after application
Procedure: (§1) The test plants are grown in pots under greenhouse conditions until a post-application stage. A standard soil is used as the cultivation substrate. At a post-emergence stage, the herbicides, both alone and in admixture with safeners, are applied to the test plants or to cultivated plants of which the seeds were dressed with safeners. Application is carried out using an emulsion prepared from a 25% emulsifiable concentrate (Example F1, b)) of the test substances using 500 l of water/ha. The rates of application are matched to the optimum dosages determined under field or greenhouse conditions. Evaluation of the tests is carried out after 9, 10, 20 and 24 days (100% action=complete destruction; 0% action=no phytotoxic action).

Alopecurus myosuroides = details: 10 days after application
Procedure: as §1

Lolium rigidum = test system: Lolium rigidum
Procedure: as §1

hard wheat = test system: hard wheat
Procedure: as §1

summer wheat = test system: summer wheat
Procedure: as §1

winter barley = details: 10 days after application
Procedure: as §1

winter wheat = details: 10 days after application
Procedure: as §1

[1] = 20 days after application, herbicide alone 60 g a.i./ha
[2] = 20 days after application, herbicide alone 125 g a.i./ha
[3] = 20 days after application, herbicide alone 250 g a.i./ha
[4] = 9 days after application, herbicide alone 60 g a.i./ha
[5] = 9 days after application, herbicide alone 125 g a.i./ha
[6] = 9 days after application, herbicide alone 250 g a.i./ha

## CCc1cc(C)cc(CC)c1C1C(=O)N2CCOCCN2C1=O [herbicide no. I1, 8-(2,6-diethyl-4-methylphenyl)tetrahydropyrazolo[1,2-d][1,4,5]-oxadiazepine-7,9-dione]
Agrostis spica-venti; herbicide alone 15 g a.i./ha
  action (100% = complete destruction; 0% = no phytotoxic action): 70%
Agrostis spica-venti; herbicide alone 30 g a.i./ha
  action (100% = complete destruction; 0% = no phytotoxic action): 70%
Agrostis spica-venti; herbicide alone 60 g a.i./ha
  action (100% = complete destruction; 0% = no phytotoxic action): 80%
Agrostis spica-venti; herbicide alone 125 g a.i./ha
  action (100% = complete destruction; 0% = no phytotoxic action): 80%
Alopecurus myosuroides; herbicide alone 15 g a.i./ha
  action (100% = complete destruction; 0% = no phytotoxic action): 50%
Alopecurus myosuroides; herbicide alone 30 g a.i./ha
  action (100% = complete destruction; 0% = no phytotoxic action): 80%
Alopecurus myosuroides; herbicide alone 60 g a.i./ha
  action (100% = complete destruction; 0% = no phytotoxic action): 80%
Alopecurus myosuroides; herbicide alone 125 g a.i./ha
  action (100% = complete destruction; 0% = no phytotoxic action): 90%
Lolium rigidum; 10 days after application, herbicide alone 15 g a.i./ha
  action (100% = complete destruction; 0% = no phytotoxic action): 60%
Lolium rigidum; 10 days after application, herbicide alone 30 g a.i./ha
  action (100% = complete destruction; 0% = no phytotoxic action): 60%
Lolium rigidum; 10 days after application, herbicide alone 60 g a.i./ha
  action (100% = complete destruction; 0% = no phytotoxic action): 60%
Lolium rigidum; 10 days after application, herbicide alone 125 g a.i./ha
  action (100% = complete destruction; 0% = no phytotoxic action): 80%
Lolium rigidum; [1]
  action (100% = complete destruction; 0% = no phytotoxic action): 95%
Lolium rigidum; [2]
  action (100% = complete destruction; 0% = no phytotoxic action): 100%
Lolium rigidum; [3]
  action (100% = complete destruction; 0% = no phytotoxic action): 100%
Hard wheat; [4]
  action (100% = complete destruction; 0% = no phytotoxic action): 55%
Hard wheat; [5]
  action (100% = complete destruction; 0% = no phytotoxic action): 60%
Hard wheat; [6]
  action (100% = complete destruction; 0% = no phytotoxic action): 60%
Hard wheat; [1]
  action (100% = complete destruction; 0% = no phytotoxic action): 20%
Hard wheat; [2]
  action (100% = complete destruction; 0% = no phytotoxic action): 30%
Hard wheat; [3]
  action (100% = complete destruction; 0% = no phytotoxic action): 45%
Summer wheat; [4]
  action (100% = complete destruction; 0% = no phytotoxic action): 60%
Summer wheat; [5]
  action (100% = complete destruction; 0% = no phytotoxic action): 60%
Summer wheat; [6]
  action (100% = complete destruction; 0% = no phytotoxic action): 60%
Summer wheat; [1]
  action (100% = complete destruction; 0% = no phytotoxic action): 20%
Summer wheat; [2]
  action (100% = complete destruction; 0% = no phytotoxic action): 40%
Summer wheat; [3]
  action (100% = complete destruction; 0% = no phytotoxic action): 50%
Winter barley; herbicide alone 15 g a.i./ha
  action (100% = complete destruction; 0% = no phytotoxic action): 0%
Winter barley; herbicide alone 30 g a.i./ha
  action (100% = complete destruction; 0% = no phytotoxic action): 0%
Winter barley; herbicide alone 60 g a.i./ha
  action (100% = complete destruction; 0% = no phytotoxic action): 0%
Winter barley; herbicide alone 125 g a.i./ha
  action (100% = complete destruction; 0% = no phytotoxic action): 0%
Winter wheat; herbicide alone 15 g a.i./ha
  action (100% = complete destruction; 0% = no phytotoxic action): 0%
Winter wheat; herbicide alone 30 g a.i./ha
  action (100% = complete destruction; 0% = no phytotoxic action): 5%
Winter wheat; herbicide alone 60 g a.i./ha
  action (100% = complete destruction; 0% = no phytotoxic action): 10%
Winter wheat; herbicide alone 125 g a.i./ha
  action (100% = complete destruction; 0% = no phytotoxic action): 20%
